Test system: 485176-168-R4-J1-PDC complex spheroid growth
Test: Anticancer human tumor 485176-168-R4-J1-PDC patient-derived pancreatic adenocarcinoma cell line growth inhibition [RAS]
Details: for viability, T/C: stronger effect = lower value
Procedure, shortened: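 Multi-cell-type spheroids: tumor cells plus HUVEC endothelial cells and mesenchymal stem cells. RAS-pathway inhibitors were combined with targeted agents, each dosed in half-log steps down from clinical Cmax, or from 10 microM when Cmax was unknown.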
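Note: spheroids exposed to compounds for seven days before readout.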
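Throughout, for viability, T/C: luminescence viability expressed relative to DMSO vehicle wells set as 100%.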

With `C=CC(=O)Nc1cc(Nc2nccc(-c3cn(C)c4ccccc34)n2)c(OC)cc1N(C)CCN(C)C` + CCn1c(-c2cc(N3CCN(C)CC3)cnc2C(C)OC)c2c3cc(ccc31)-c1csc(n1)CC(NC(=O)C1CC1C)C(=O)N1CCCC(N1)C(=O)OCC(C)(C)C2 the IC50 (curve of first compound, second compound 0.000949 µM) was > 1000 nM, the IC50 (curve of first compound, second compound 0.003 µM) was > 1000 nM and the IC50 (curve of first compound, second compound 0.00949 µM) was > 1000 nM. The IC50 (curve of first compound, second compound 0.03 µM) was > 1000 nM, the IC50 (curve of first compound, second compound 0.0949 µM) was > 1000 nM and the IC50 (curve of first compound, second compound 0.3 µM) was > 1000 nM. The viability, T/C (second compound 0.000949 µM, first compound 0.00316 µM) was 88.1%, the viability, T/C (second compound 0.000949 µM, first compound 0.01 µM) was 91.4% and the viability, T/C (second compound 0.000949 µM, first compound 0.0316 µM) was 95.6%. It also gave a viability, T/C (second compound 0.000949 µM, first compound 0.1 µM) of 89.9%, a viability, T/C (second compound 0.000949 µM, first compound 0.316 µM) of 79.7% and a viability, T/C (second compound 0.000949 µM, first compound 1 µM) of 69.4%. For the same compound, the viability, T/C (second compound 0.003 µM, first compound 0.00316 µM) was 92.8%, the viability, T/C (second compound 0.003 µM, first compound 0.01 µM) was 80.3% and the viability, T/C (second compound 0.003 µM, first compound 0.0316 µM) was 78.6%. For the same compound, the viability, T/C (second compound 0.003 µM, first compound 0.1 µM) was 76%, the viability, T/C (second compound 0.003 µM, first compound 0.316 µM) was 86.4% and the viability, T/C (second compound 0.003 µM, first compound 1 µM) was 60.5%. The viability, T/C (second compound 0.00949 µM, first compound 0.00316 µM) was 91.8%, the viability, T/C (second compound 0.00949 µM, first compound 0.01 µM) was 93.3% and the viability, T/C (second compound 0.00949 µM, first compound 0.0316 µM) was 73.7%. For the same compound, the viability, T/C (second compound 0.00949 µM, first compound 0.1 µM) was 94%, the viability, T/C (second compound 0.00949 µM, first compound 0.316 µM) was 83.2% and the viability, T/C (second compound 0.00949 µM, first compound 1 µM) was 62.9%. The viability, T/C (second compound 0.03 µM, first compound 0.00316 µM) was 70%, the viability, T/C (second compound 0.03 µM, first compound 0.01 µM) was 87.7% and the viability, T/C (second compound 0.03 µM, first compound 0.0316 µM) was 85.2%. For the same compound, the viability, T/C (second compound 0.03 µM, first compound 0.1 µM) was 90.6%, the viability, T/C (second compound 0.03 µM, first compound 0.316 µM) was 63.4% and the viability, T/C (second compound 0.03 µM, first compound 1 µM) was 57.9%. For the same compound, the viability, T/C (second compound 0.0949 µM, first compound 0.00316 µM) was 77.8%, the viability, T/C (second compound 0.0949 µM, first compound 0.01 µM) was 83% and the viability, T/C (second compound 0.0949 µM, first compound 0.0316 µM) was 81.2%. For the same compound, the viability, T/C (second compound 0.0949 µM, first compound 0.1 µM) was 61.9%, the viability, T/C (second compound 0.0949 µM, first compound 0.316 µM) was 83.3% and the viability, T/C (second compound 0.0949 µM, first compound 1 µM) was 64.3%. For the same compound, the viability, T/C (second compound 0.3 µM, first compound 0.00316 µM) was 81.6%, the viability, T/C (second compound 0.3 µM, first compound 0.01 µM) was 72.9% and the viability, T/C (second compound 0.3 µM, first compound 0.0316 µM) was 73.4%. It also gave a viability, T/C (second compound 0.3 µM, first compound 0.1 µM) of 84.2%, a viability, T/C (second compound 0.3 µM, first compound 0.316 µM) of 71.4% and a viability, T/C (second compound 0.3 µM, first compound 1 µM) of 50.2%.

In the case of `CC(Nc1ccc2c(c1)OCCn1cc(N3C(=O)OCC3C(F)F)nc1-2)C(N)=O` (stereo unspecified), the viability, T/C (compound 0.0316 µM) is reported as 97.9% [middle of 4 runs], the viability, T/C (compound 0.1 µM) is reported as 89.2% [middle of 4 runs] and the viability, T/C (compound 0.316 µM) is reported as 84.7% [middle of 4 runs]. The viability, T/C (compound 1 µM) was 75.3% [middle of 4 runs], the viability, T/C (compound 3.16 µM) was 69.1% [middle of 4 runs] and the viability, T/C (compound 10 µM) was 55.5% [middle of 4 runs]. For the same compound, the IC50 (curve of compound) was > 10000 nM.

In the case of `CC1(C)CCC(Nc2ncc(C(F)(F)F)c(-c3c[nH]c4c(P(C)(C)=O)c(C#N)ccc34)n2)CN1` (stereo unspecified) + C#Cc1c(F)ccc2cc(O)cc(-c3ncc4c(N5CC6CCC(C5)N6)nc(OCC56CCCN5CC(F)C6)nc4c3F)c12, the IC50 (curve of first compound, second compound 0.0316 µM) is reported as > 300 nM, the IC50 (curve of first compound, second compound 0.1 µM) is reported as > 300 nM and the IC50 (curve of first compound, second compound 0.316 µM) is reported as > 300 nM. For the same compound, the IC50 (curve of first compound, second compound 1 µM) was 262 nM, the IC50 (curve of first compound, second compound 3.16 µM) was > 300 nM and the IC50 (curve of first compound, second compound 10 µM) was 114 nM. For the same compound, the viability, T/C (second compound 0.0316 µM, first compound 0.000949 µM) was 106%, the viability, T/C (second compound 0.0316 µM, first compound 0.003 µM) was 98.2% and the viability, T/C (second compound 0.0316 µM, first compound 0.00949 µM) was 83.8%. For the same compound, the viability, T/C (second compound 0.0316 µM, first compound 0.03 µM) was 59.8%, the viability, T/C (second compound 0.0316 µM, first compound 0.0949 µM) was 61.8% and the viability, T/C (second compound 0.0316 µM, first compound 0.3 µM) was 56.2%. For the same compound, the viability, T/C (second compound 0.1 µM, first compound 0.000949 µM) was 98.5%, the viability, T/C (second compound 0.1 µM, first compound 0.003 µM) was 114% and the viability, T/C (second compound 0.1 µM, first compound 0.00949 µM) was 79.1%. It also gave a viability, T/C (second compound 0.1 µM, first compound 0.03 µM) of 59.7%, a viability, T/C (second compound 0.1 µM, first compound 0.0949 µM) of 56.9% and a viability, T/C (second compound 0.1 µM, first compound 0.3 µM) of 50%. The viability, T/C (second compound 0.316 µM, first compound 0.000949 µM) was 106%, the viability, T/C (second compound 0.316 µM, first compound 0.003 µM) was 121% and the viability, T/C (second compound 0.316 µM, first compound 0.00949 µM) was 84.5%. The viability, T/C (second compound 0.316 µM, first compound 0.03 µM) was 55.8%, the viability, T/C (second compound 0.316 µM, first compound 0.0949 µM) was 53.1% and the viability, T/C (second compound 0.316 µM, first compound 0.3 µM) was 60.5%. It also gave a viability, T/C (second compound 1 µM, first compound 0.000949 µM) of 118%, a viability, T/C (second compound 1 µM, first compound 0.003 µM) of 96% and a viability, T/C (second compound 1 µM, first compound 0.00949 µM) of 80.5%. The viability, T/C (second compound 1 µM, first compound 0.03 µM) was 68.1%, the viability, T/C (second compound 1 µM, first compound 0.0949 µM) was 53.5% and the viability, T/C (second compound 1 µM, first compound 0.3 µM) was 50.4%. It also gave a viability, T/C (second compound 3.16 µM, first compound 0.000949 µM) of 107%, a viability, T/C (second compound 3.16 µM, first compound 0.003 µM) of 97.9% and a viability, T/C (second compound 3.16 µM, first compound 0.00949 µM) of 84.5%. For the same compound, the viability, T/C (second compound 3.16 µM, first compound 0.03 µM) was 63.8%, the viability, T/C (second compound 3.16 µM, first compound 0.0949 µM) was 58.3% and the viability, T/C (second compound 3.16 µM, first compound 0.3 µM) was 53%. The viability, T/C (second compound 10 µM, first compound 0.000949 µM) was 99.3%, the viability, T/C (second compound 10 µM, first compound 0.003 µM) was 89.3% and the viability, T/C (second compound 10 µM, first compound 0.00949 µM) was 81.2%. It also gave a viability, T/C (second compound 10 µM, first compound 0.03 µM) of 68.7%, a viability, T/C (second compound 10 µM, first compound 0.0949 µM) of 46.2% and a viability, T/C (second compound 10 µM, first compound 0.3 µM) of 46.4%.
